From patent US11679098B2, “Methods for treating diseases” (UNIVERSITY OF LOUISVILLE RESEARCH FOUNDATION, INC., priority 2018, dated 2023)

Assays:
[1] = DTNB assay for reactivity with free thiols, cysteine; format: physicochemical; settings: 0.25 mM cysteine, 30 min at 37° C., pH 8.0
Experimental: (§1) Dithiobis-2-nitrobenzioc acid (DTNB) assay for free sulfhydryls. Similar to previously described in SALIPUR et al. “A novel small molecule that induces oxidative stress and selectively kills malignant cells” Free Radic Biol Med. (2014) Vol. 68, pp. 110-121, which is herein incorporated by reference in its entirety, reactivity with free sulfhydryls was evaluated using DTNB (Sigma). Briefly, a 4× solution of DTNB (6 mM DTNB, 50 mM sodium acetate in 100 mM Tris-HCl, pH 8.0) and solutions of 0.5 mM cysteine (Sigma) and reduced glutathione (GSH, Sigma) in 100 mM Tris-HCl, pH 8.0 were freshly prepared. The 200 mM stock solutions of XB05, other compounds, diethylmaleate (Sigma), and maleimide (Sigma) were prepared in 100% DMSO, and subsequently diluted to 2× working solutions in 100 mM Tris-HCl, pH 8.0. Thiol compounds (final concentration 0.25 mM) and thiol-reactive compounds (final concentrations 0.04-5 mM) or vehicle were added in duplicate to a 96-well plate and incubated for 30 min at 37° C. DTNB solution was then added to each well (final concentration 400 μM), and incubated at room temperature for an additional 5 min. Absorbance at 412 nm was determined by a Biotek HT Synergy plate reader (Winooski, Vt.).

[2] = tested on: IMR-90 (non-malignant lung fibroblasts); test: MTT antiproliferative assay in IMR-90 cells; format: cell-based; settings: Homo sapiens, 72 hrs treatment, read-out: MTT Antiproliferative Activity - IC50 (μM) IMR0 (non-malignant lung fibroblasts)
Experimental: (§2) Cell culture. A549 and IMR-90 cells were purchased from the American Type Culture Collection (ATCC), while HOP-62 and HOP-92 were obtained from the cell line repository at the National Cancer Institute. Cells were grown in the appropriate medium supplemented with 10% fetal bovine serum (FBS, Life Technologies, Grand Island, N.Y.), 62.5 μg/mL penicillin and 100 μg/mL streptomycin (Life Technologies) in a humidified incubator at 37° C. with 5% CO2. The media were as follows: Dulbecco's modified Eagle's medium (DMEM, Life Technologies) for A549 cells; RPMI 1640 (Life Technologies) for HOP-62 and HOP-92 cells; Eagle's minimal essential medium (EMEM) with Eagle's balanced salt solution (EBSS), 2 mM L-glutamine, 1500 mg/L sodium bicarbonate (Lonza, Walkersville, Md.), supplemented with 1 mM sodium pyruvate (Life Technologies) and non-essential amino acids (Life Technologies) for IMR-90 cells. Cell lines were verified with a 9-marker short tandem repeat profile and inter-species contamination test (Idexx BioResearch), although A549 cells utilized in proliferation assays were missing the Y allele at the amelogenin marker.
(§3) Cell proliferation & viability assays. Anti-proliferative activity of XB05 and other compounds was evaluated using a previously published 3-(4,5-dimethylthiazol-2-yl)-2,5-diphenyltetrazolium bromide (MTT) assay protocol (MORGAN “Tetrazolium (MTT) assay for cellular viability and activity” Methods Mol Biol. (1998) Vol. 79, pp. 179-83, which is herein incorporated by reference in its entirety, BATES et al. “Antiproliferative activity of G-rich oligonucleotides correlates with protein binding” J Biol Chem. (1999) Vol. 274, No. 37, pp. 26369-26377, which is herein incorporated by reference in its entirety, SALIPUR et al. “A novel small molecule that induces oxidative stress and selectively kills malignant cells” Free Radic Biol Med. (2014) Vol. 68, pp. 110-121, which is herein incorporated by reference in its entirety). Cells were seeded in quadruplicate wells in 96-well plates and allowed to adhere overnight. […] After 72 hrs of treatment with XB05 or other compounds, MTT (Sigma, St. Louis, Mo.) was added for 4 hrs prior to cell lysis. Each assay was performed in at least triplicate.
(§4) XB05 and related compounds were assessed for anti-proliferative activity in malignant (A549) and non-malignant (IMR-90) cells (Table A2).

[3] = DTNB assay for reactivity with free thiols, reduced glutathione; format: physicochemical; settings: 0.25 mM reduced glutathione, 30 min at 37° C., pH 8.0
Experimental: as §1

[4] = tested on: A549 (lung adenocarcinoma); test: MTT antiproliferative assay in A549 cells; format: cell-based, human; settings: Homo sapiens, 72 hrs treatment, MTT
Experimental: as §2, §3, §4

Compound	DTNB Reactivity with Thiols - DTNB assay with Cysteine [1]	IC50 [2] [µM]	DTNB Reactivity with Thiols - DTNB assay with Glutathione [3]	IC50 [4] [µM]
C#CC(O)CCCCC (stereo not shown) [Compound 1-Octyn-3-ol, 1-Octyn-3-ol]	Reactive	> 10	ND (DTNB ND - not detected at concentrations up to 2.5 mM)	> 10
CCCCCC(C#CC(F)(F)Br)OC (stereo not shown) [JAB-4-155]	ND (DTNB ND - not detected at concentrations up to 2.5 mM)	> 10	ND (DTNB ND - not detected at concentrations up to 2.5 mM)	3.5
CCCCCC(O)C#CC(F)(F)F (stereo not shown) [JAB-4-156]	ND (DTNB ND - not detected at concentrations up to 2.5 mM)	> 10	ND (DTNB ND - not detected at concentrations up to 2.5 mM)	> 10
CCCCCCC#CC(F)(F)Br [JAB-4-158]	ND (DTNB ND - not detected at concentrations up to 2.5 mM)	> 10	ND (DTNB ND - not detected at concentrations up to 2.5 mM)	2.1
CCCCCC(=O)C#CC(F)(F)Br [JAB-4-163]	ND (DTNB ND - not detected at concentrations up to 2.5 mM)	> 10	ND (DTNB ND - not detected at concentrations up to 2.5 mM)	> 10
CCCCCC(=O)/C=C(\NCCC)C(F)(F)Br [JAB-4-165]	ND (DTNB ND - not detected at concentrations up to 2.5 mM)	> 10	ND (DTNB ND - not detected at concentrations up to 2.5 mM)	> 10
CC/C=C\CCC(O)C#CC(F)(F)Br (stereo not shown) [JAB-4-169]	ND (DTNB ND - not detected at concentrations up to 2.5 mM)	3.8	ND (DTNB ND - not detected at concentrations up to 2.5 mM)	0.4
CCCCCC(Cl)C#CC(F)(F)Br (stereo not shown) [MNR-1-102]	ND (DTNB ND - not detected at concentrations up to 2.5 mM)	> 10	Reactive	> 10
CCCCCC(O)C#CC(F)(F)Oc1ccc(F)cc1 (stereo not shown) [MNR-1-110]	ND (DTNB ND - not detected at concentrations up to 2.5 mM)	> 10	ND (DTNB ND - not detected at concentrations up to 2.5 mM)	> 10
CCCCCC(O)C#CC(F)(F)SCc1ccccc1 (stereo not shown) [MNR-1-111]	ND (DTNB ND - not detected at concentrations up to 2.5 mM)	> 10	ND (DTNB ND - not detected at concentrations up to 2.5 mM)	> 10
CCCC(C)C(O)C#CC(F)(F)Br (stereo not shown) [MNR-1-117]	ND (DTNB ND - not detected at concentrations up to 2.5 mM)	7.9	ND (DTNB ND - not detected at concentrations up to 2.5 mM)	1.9
CCCCCC(C)(O)C#CC(F)(F)Br (stereo not shown) [MNR-1-118]	ND (DTNB ND - not detected at concentrations up to 2.5 mM)	> 10	ND (DTNB ND - not detected at concentrations up to 2.5 mM)	8.2
CCCC(O)C#CC(F)(F)Br (stereo not shown) [MNR-1-122]	ND (DTNB ND - not detected at concentrations up to 2.5 mM)	1.1	ND (DTNB ND - not detected at concentrations up to 2.5 mM)	0.8
OC(C#CC(F)(F)Br)CCCCc1ccccc1 (stereo not shown) [MNR-1-129]	–	> 10	–	> 10
CCC#CCCCCCCCC(O)C#CC(F)(F)Br (stereo not shown) [MNR-1-147]	–	4	–	1.1
CC(C)(C)OC(=O)NCCCCCCCCCC(O)C#CC(F)(F)Br (stereo not shown) [MNR-1-186]	–	> 10	–	> 10

Compound	DTNB Reactivity with Thiols - DTNB assay with Cysteine [1]	IC50 [2] [µM]	DTNB Reactivity with Thiols - DTNB assay with Glutathione [3]	IC50 [4] [µM]
O=C(CCCCC1SCC2NC(=O)NC21)NCCOCCOCCOCCOCCC(=O)NCCCCCCCCCC(O)C#CC(F)(F)Br (stereo not shown) [MNR-2-6]	–	> 10	–	> 10
CCCCCC(C#CC(F)(F)Br)OC1CCCCO1 (stereo not shown) [MNR-3-27]	–	3.7	–	1.9
CCCCC[C@@H](O)C#CC(F)(F)Br [MNR-3-38]	ND (DTNB ND - not detected at concentrations up to 2.5 mM)	1.5	ND (DTNB ND - not detected at concentrations up to 2.5 mM)	0.4
CCCCC[C@H](O)C#CC(F)(F)Br [MNR-3-41]	–	> 10	–	4.8
CCCCCC(C#CC(F)(F)Br)OC(C)=O (stereo not shown) [MNR-3-43]	ND (DTNB ND - not detected at concentrations up to 2.5 mM)	5.4	ND (DTNB ND - not detected at concentrations up to 2.5 mM)	0.9
CCCCCCCCCC(O)C#CC(F)(F)Br (stereo not shown) [MNR-3-69]	–	2.8	–	1
OC(C#CC(F)(F)Br)CCc1ccccc1 (stereo not shown) [MNR-3-82]	–	2.8	–	1.2
CC(C)(C)C(O)C#CC(F)(F)Br (stereo not shown) [MNR-3-85]	–	> 10	–	> 10
CC(C)C(O)C#CC(F)(F)Br (stereo not shown) [MNR-3-86]	–	> 10	–	> 10
CCCCCCCCCCCC(O)C#CC(F)(F)Br (stereo not shown) [MNR-3-89]	–	2.7	–	1.1
OC(C#CC(F)(F)Br)C1CCCCC1 (stereo not shown) [MNR-3-90]	–	3.1	–	0.9
CCCCCC(O)C#CC(F)F (stereo not shown) [MNR-3-91]	–	> 10	–	> 10
CCCCCC(O)C#CCBr (stereo not shown) [MNR-3-92]	Reactive	8.7	Reactive	7.1
OC(C#CC(F)(F)Br)c1ccccc1 (stereo not shown) [MNR-3-93]	–	> 10	–	> 10
CCCCCCCC(O)C#CC(F)(F)Br (stereo not shown) [MNR-3-94]	–	2.7	–	0.9
